Our source for the IC50 values is US20220144812A1, “QUINOLINE DERIVATIVES AND THEIR USE FOR THE TREATMENT OF CANCER” (Epizyme, Inc., priority 2019, published 2022).

What is called IC50 is the concentration that inhibits the measured activity by half.

Like-named read-outs stand apart in the source and are kept apart here.

In experiment [1] the test system is H3K18Ac in HB-CLS-2 cells. The experiment is described as follows: H3K18AC in-cell western (ICW) assay. In kind it is cell-based. To be noted: H3K18Ac in-cell western; read-out: CREBBP ICW IC50. The essentials:
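In-cell western: after methanol fixation, blocking, overnight 4° C anti-H3K18Ac staining, then 800CW secondary plus DRAQ5 for DNA content, integrated intensities were scanned at 800 and 700 nm. Before this, compound exposure lasted 2 hr at 37° C in HB-CLS-2 cells plated 16–24 hours earlier. Values expressed as IC50 (μM).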

For another experiment, the target named is T1, CREBBP (1084-1701) (Homo sapiens, UniProt Q92793).
T1 construct: measured in the following biochemical assay using CREBBP (1084-1701); purchased
T1 sequence (Q92793 1084-1701): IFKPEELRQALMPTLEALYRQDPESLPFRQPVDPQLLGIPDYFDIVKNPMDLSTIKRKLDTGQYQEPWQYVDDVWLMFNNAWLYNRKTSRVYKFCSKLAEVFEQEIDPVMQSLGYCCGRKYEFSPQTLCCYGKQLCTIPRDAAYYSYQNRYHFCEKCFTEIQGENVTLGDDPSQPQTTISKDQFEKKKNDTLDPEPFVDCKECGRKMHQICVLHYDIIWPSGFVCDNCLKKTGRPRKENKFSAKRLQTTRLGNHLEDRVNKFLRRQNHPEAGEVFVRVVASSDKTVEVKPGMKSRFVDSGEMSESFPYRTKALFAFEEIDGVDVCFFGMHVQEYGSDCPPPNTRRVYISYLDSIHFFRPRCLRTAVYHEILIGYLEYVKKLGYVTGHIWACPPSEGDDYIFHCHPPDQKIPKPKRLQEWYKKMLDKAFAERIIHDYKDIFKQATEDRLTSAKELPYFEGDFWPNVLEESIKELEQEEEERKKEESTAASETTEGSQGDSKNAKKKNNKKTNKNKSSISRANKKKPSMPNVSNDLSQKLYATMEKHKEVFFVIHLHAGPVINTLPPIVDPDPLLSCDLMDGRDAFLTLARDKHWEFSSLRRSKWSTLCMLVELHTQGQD
The experiment is described as follows: Biochemical assay for CREBBP (1084-1701), SAMDI. To be noted: SAMDI, read-out: CREBBP Biochemistry IC50. The essentials:
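Acetyltransferase activity measured by SAMDI mass spectrometry after capture on biochip. Enzyme sat with compound 30 min at RT before acetyl-CoA and biotinylated H3 11-25 (K14R, K23R) peptide were added for 30 min at RT. Formic acid quench, bicarbonate neutralisation; IC50 values reported.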

The target in a further experiment is T2, EP300 (P300(1048-1664)) (Homo sapiens, UniProt Q09472).
T2 construct: P300(1048-1664)
T2 sequence (Q09472 1048-1664): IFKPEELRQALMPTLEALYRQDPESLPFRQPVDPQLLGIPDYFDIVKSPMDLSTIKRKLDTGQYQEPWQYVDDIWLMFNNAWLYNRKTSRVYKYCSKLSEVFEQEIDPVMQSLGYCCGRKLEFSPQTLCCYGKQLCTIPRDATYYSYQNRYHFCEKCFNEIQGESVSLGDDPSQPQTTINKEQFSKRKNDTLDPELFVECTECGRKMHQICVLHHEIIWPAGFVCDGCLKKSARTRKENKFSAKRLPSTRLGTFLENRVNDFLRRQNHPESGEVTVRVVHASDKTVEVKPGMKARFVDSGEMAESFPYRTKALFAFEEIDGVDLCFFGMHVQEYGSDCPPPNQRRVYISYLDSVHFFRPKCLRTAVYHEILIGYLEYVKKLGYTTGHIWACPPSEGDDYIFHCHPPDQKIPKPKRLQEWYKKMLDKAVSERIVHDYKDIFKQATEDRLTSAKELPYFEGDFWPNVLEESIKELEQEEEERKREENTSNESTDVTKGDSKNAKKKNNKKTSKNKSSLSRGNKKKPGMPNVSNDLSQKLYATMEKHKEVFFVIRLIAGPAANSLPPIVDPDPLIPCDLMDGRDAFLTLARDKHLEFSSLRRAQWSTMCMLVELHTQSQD
The experiment is described as follows: Biochemical assay for EP300, SAMDI. Particulars: EP300, SAMDI; read-out: EP300 Biochemistry IC50. From the text: The following example describes materials and methods relating to a biochemical assay for EP300. IC50 values (micromolar (μM)) are summarized in Table 1, Table 2, and Table 3 under the column labeled: “EP300 Biochemistry IC50 (micromolar).”

For a further experiment, the system named is 647V cells. The experiment can be described thus: High throughput proliferation (HTP) assay. Particulars: high throughput proliferation, read-out: CREBBP HTP IC50. Type of experiment: cell-based. The method, boiled down: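 Proliferation IC50 (micromolar) derived from a 7-day CellTiter-Glo viable-cell readout in 647V cells exposed, in triplicate, to rising compound concentrations; cells grown in DMEM plus 15% heat-inactivated FBS at 37° C under 5% CO2.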

`CCn1ncc(CN(C)C(=O)c2nc(-c3cc(Cl)cc(NC(=O)NC)c3)nc3ccc(Cl)cc23)c1C` [Compound 34]: the IC50 in experiment [1] came out at 270 nM; on CREBBP (1084-1701), 3.2 nM; at EP300 (P300(1048-1664)), 3.2 nM; with 647V cells (Homo sapiens, 647-V), 200 nM.
For `CCn1ncc(CN(C)C(=O)c2nc(-c3ccc(OCCNC(C)=O)c(Cl)c3)nc3ccc(Cl)cc23)c1C` [Compound 35], the IC50 was 290 nM in experiment [1]; 44 nM on CREBBP (1084-1701); 180 nM at EP300 (P300(1048-1664)); 220 nM in the experiment on 647V cells (Homo sapiens, 647-V).
Turning to `CCc1ncc(CN(C)C(=O)c2nc(-c3cccc(Cl)c3)nc3ccc(Cl)cc23)n1C` [Compound 37], the IC50 was 300 nM in experiment [1]; 3.4 nM on CREBBP (1084-1701); 6.1 nM on EP300 (P300(1048-1664)); 290 nM with 647V cells (Homo sapiens, 647-V).
The matching figures for `CCn1ncc(CN(C)C(=O)c2nc(-c3ccc(O[C@@H]4CNC[C@H]4O)cc3Cl)nc3ccc(Cl)cc23)c1C` [Compound 38]: 330 nM, 34 nM, 12 nM and 230 nM.
The matching figures for `CCn1ncc(CN(C)C(=O)c2nc(-c3ccc4[nH]c(C)nc4c3)nc3ccc(Cl)cc23)c1C` [Compound 39]: 340 nM, 650 nM, 680 nM and 250 nM.
The matching figures for `CCn1ncc(CN(C)C(=O)c2nc(-c3ccc(OCCN4CCCC4)cc3Cl)nc3ccc(Cl)cc23)c1C` [Compound 40]: 350 nM, 110 nM, 130 nM and 220 nM.
Regarding `CCn1ncc(CN(C)C(=O)c2nc(-c3ccc(OCCO)c(Cl)c3)nc3ccc(Cl)cc23)c1C` [Compound 41], the half-inhibitory concentration (IC50) in experiment [1] is 370 nM; on CREBBP (1084-1701), 62 nM; at EP300 (P300(1048-1664)) it was 250 nM; in the experiment on 647V cells (Homo sapiens, 647-V), 160 nM.
On to `CCn1ncc(CN(C)C(=O)c2nc(-c3ccc(OCCCN4CCCCC4)c(C)c3)nc3ccc(Cl)cc23)c1C` [Compound 42], for which the half-inhibitory concentration (IC50) came to 380 nM in experiment [1]; 69 nM on CREBBP (1084-1701); 88 nM at EP300 (P300(1048-1664)); 180 nM with 647V cells (Homo sapiens, 647-V).
The matching figures for `CCn1ncc(CN(C)C(=O)c2nc(-c3ccc(OCCNC(C)=O)c(C)c3)nc3ccc(Cl)cc23)c1C` [Compound 43]: 380 nM, 69 nM, 340 nM and 460 nM.
The matching figures for `CCn1ncc(CN(C)C(=O)c2nc(-c3cc(C)c4n[nH]cc4c3)nc3ccc(Cl)cc23)c1C` [Compound 44]: 380 nM, 27 nM, 83 nM and 270 nM.
The matching figures for `CCn1ncc(CN(C)C(=O)c2cc(-c3ccc(OCCO)c(C)n3)nc3ccc(Cl)cc23)c1C` [Compound 45]: 390 nM, 74 nM, 75 nM and 380 nM.
As to `CCn1ncc(CN(C)C(=O)c2nc(-c3ccc(OCCCNC)c(C4CC4)c3)nc3ccc(Cl)cc23)c1C` [Compound 46], the IC50 in experiment [1] was found to be 410 nM; on CREBBP (1084-1701), 41 nM; on EP300 (P300(1048-1664)), 320 nM; with 647V cells (Homo sapiens, 647-V), 200 nM.
As to `CCn1ncc(CN(C)C(=O)c2cc(-c3cnc[nH]3)nc3ccc(Cl)cc23)c1C` [Compound 48], the IC50 is 450 nM in experiment [1]; 380 nM at CREBBP (1084-1701); 110 nM on EP300 (P300(1048-1664)); 770 nM with 647V cells (Homo sapiens, 647-V).
`CCn1ncc(CN(C)C(=O)c2nc(-c3cc(Cl)cc(NCCCNC)c3)nc3ccc(Cl)cc23)c1C` [Compound 50]: the IC50 in experiment [1] amounted to 480 nM; on CREBBP (1084-1701), 16 nM; at EP300 (P300(1048-1664)), 5 nM; in the experiment with 647V cells it was 150 nM.
On to `CCn1ncc(CN(C)C(=O)c2nc(-c3cc4nc[nH]c4cc3OC)nc3ccc(Cl)cc23)c1C` [Compound 51], for which the IC50 in experiment [1] turned out to be 520 nM; on CREBBP (1084-1701), 570 nM; at EP300 (P300(1048-1664)) it was 690 nM; in the experiment on 647V cells (Homo sapiens, 647-V), 520 nM.
